Laboratory results from paper PMC3454376, “Salidroside Improves Behavioral and Histological Outcomes and Reduces Apoptosis via PI3K/Akt Signaling after Experimental Traumatic Brain Injury” (PLoS ONE, 2012).

System: mice subjected to controlled cortical impact injury
Experiment: Rotarod motor test after CCI
Format: in vivo
Description: All animal procedures were approved by the Animal Research Committee at Cheng Hsin General Hospital (Animal permit number CHIACUC 101–08), and all procedures complied with the Guide for the Care and Use of Laboratory Animals published by the US National Institutes of Health (NIH Publication No. 85–23, revised 1996). Animals were housed under a 12-h light/dark cycle and at constant temperature (21–25°C) and humidity (45–50%). They were allowed free access to pellet chow and water. TBI in mice was induced by a CCI injury model as previously described. Briefly, 8-week-old male C57BL/6 mice (weighing 22–25 g) were anesthetized through the use of intraperitoneal injection of sodium pentobarbital (65 mg/kg; Rhone Merieux, Harlow, UK) and placed in a stereotaxic frame. A 5 mm craniotomy was performed over the right parietal cortex, centered on the coronal suture and 0.1 mm lateral to the sagittal suture, and injury to dura was avoided. […] Body temperature was monitored throughout the surgery by a rectal probe; temperature was maintained at 37.0±0.5°C using a heated pad. […]
Three sets of experiments were performed. […] To determine the optimal dose of salidroside, a pilot study was performed using 2 different doses (20 and 50 mg/kg) administered 10 min after injury, and neurological deficits and tissue damage were evaluated as the main outcomes. […]

## OC[C@H]1O[C@@H](OCCc2ccc(O)cc2)[C@H](O)[C@@H](O)[C@@H]1O [SALD, salidroside]
20 mg/kg ip 10 min after CCI, whole observation period (28 days), all P<0.05
  rotarod performance versus vehicle group: significantly better performance
50 mg/kg ip 10 min after CCI, only at days 14 and 28, P<0.05
  rotarod outcome versus vehicle group: significantly improved
